Experiment: Human HepG2 cell viability assay in 384 well format
Format: toxicity, cell-based
Parameters: dose 125 nL, time 70.5 hour; concentration not given beside the values
Details: HepG2 cells, read-out: Inhibition

| SMILES | cytotoxicity at 70.5 h [%] |
| --- | --- |
| O=C(Nc1c(F)cccc1F)N1CC(c2nc(C3CC3)no2)C1 | -6.67 |
| CCS(=O)(=O)N1CC(c2nc(-c3cccs3)no2)C1 | -2.02 |
| COc1ncccc1C(=O)N1CC(c2nc(-c3cccs3)no2)C1 | -5.8 |
| CN(C)S(=O)(=O)N1CC(c2nc(-c3ccsc3)no2)C1 | -6.06 |
| O=C(c1ccccc1F)N1CC(c2nc(-c3ccc[nH]c3=O)no2)C1 | -2.53 |
| N#Cc1cccc(C(=O)N2CC(c3nc(-c4ccc[nH]c4=O)no3)C2)c1 | -1.92 |
| COc1ncccc1C(=O)N1CC(c2nc(-c3ccco3)no2)C1 | 15.9 |
| O=C1CCCN1C(CNS(=O)(=O)C1CC1)Cc1cccc(F)c1 (configuration not stated) | -15.5 |
| Cc1cc(C(=O)NCC(Cc2cccc(F)c2)N2CCCCC2=O)no1 (configuration not stated) | -2.65 |
| CN(C)S(=O)(=O)NCC(Cc1cccc(F)c1)N1CCNC1=O (configuration not stated) | -2.09 |
| CC(C)S(=O)(=O)NCC(Cc1cccc(F)c1)N1CCNC1=O (configuration not stated) | -15.5 |
| CCOCC(=O)NCC(Cc1cccc(F)c1)n1cccc1 (configuration not stated) | -1.33 |
| O=C(Nc1ccccc1F)C1CN(C(=O)c2ccc3c(c2)OCO3)C1 | -11.5 |
| CC(=O)N1CC(C(=O)Nc2cccc(OC(F)F)c2)C1 | -3.71 |
| O=C(Nc1cccc(OC(F)F)c1)C1CN(S(=O)(=O)C2CC2)C1 | 0.345 |
| O=C(CC1CCCCC1)N1CCOCC1CO (configuration not stated) | -14.9 |
| c1ccc2c(c1)CCN2c1nc(N2CCOCC2)c2nn[nH]c2n1 | 32.9 |
| O=S(=O)(NCC1CCN(c2cnccn2)CC1)C1CC1 | 30.4 |
| CC(=O)c1ccc(S(=O)(=O)NCC2CCN(c3cnccn3)CC2)cc1 | -4.91 |
| CCCc1nnsc1C(=O)NCC1CCN(C(=O)c2ccncc2)CC1 | 25.7 |
| COc1cccc(C(=O)NCC2CCN(C(=O)c3ccoc3)CC2)c1 | -3.78 |
| COc1ccc(CCC(=O)NCCN2CCC(c3cccs3)CC2)cc1 | -1.5 |
| CSCC(C)(O)CNS(=O)(=O)Cc1ccc(F)cc1 (configuration not stated) | -11.7 |

| SMILES | cytotoxicity at 70.5 h [%] |
| --- | --- |
| CCOc1ccccc1NC(=O)NCC(C)(O)CCSC (configuration not stated) | -3.88 |
| COc1cccc(NC(=O)NCC(C)(O)CCSC)c1OC (configuration not stated) | -8.28 |
| CC(C)(C)C(O)CCNC(=O)c1ccc(F)cc1Cl (configuration not stated) | -16.1 |
| O=S(=O)(NCCC(O)c1cccs1)c1c(F)cccc1F (configuration not stated) | -14.6 |
| COc1ccc(Cl)cc1NC(=O)CN1CCc2nc(NC(C)=O)sc2C1 | 18.9 |
| O=C(Nc1nc2c(s1)CN(S(=O)(=O)C1CC1)CC2)C1CC1 | 27 |
| COC(=O)Nc1nc2c(s1)CN(C(=O)NCc1cccs1)CC2 | -7.97 |
| CC(C)NC(=O)Nc1nc2c(s1)CN(C(=O)NCc1cccs1)CC2 | -0.676 |
| O=C(Nc1nc2c(s1)CN(S(=O)(=O)C1CC1)CC2)c1ccsc1 | -12.1 |
| COc1ccc(F)cc1S(=O)(=O)N1CCN(CCn2ccnc2)CC1 | -12.2 |
| O=S(=O)(NCC(O)c1ccc(C(F)(F)F)cc1)C1CC1 (configuration not stated) | 12.5 |
| O=S(=O)(NCC1(O)CCOc2ccccc21)c1ccc(Cl)s1 (configuration not stated) | -6.65 |
| O=C1CC(NS(=O)(=O)c2ccc(Cl)cc2)CN1 (configuration not stated) | 0.308 |
| O=C1CC(NS(=O)(=O)c2cccc(F)c2)CN1 (configuration not stated) | 5.76 |
| O=C1CC(NS(=O)(=O)c2ccc(F)c(Cl)c2)CN1 (configuration not stated) | 0.519 |
| COC(=O)c1ccc(S(=O)(=O)NC2CNC(=O)C2)cc1 (configuration not stated) | 0.76 |
| O=C(NC1CC(=O)N(C2CC2)C1)c1ccc(Cl)s1 (configuration not stated) | -8.35 |
| CCS(=O)(=O)CCNC(=O)c1cc2n(n1)CCCO2 | -5.74 |
| O=C(c1cnn2c1OCCC2)N1CCC(Cc2ccccc2)CC1 | 29.6 |
| CC(=O)c1ccc(N2CCN(C(=O)c3cnn4c3OCCC4)CC2)cc1 | 1.33 |
| O=C(c1cnn2c1OCCC2)N1CCN(C(=O)C2CCCO2)CC1 (configuration not stated) | -5.75 |
| CC(C)(C)OC(=O)N1CCN(C(=O)c2cnn3c2OCCC3)CC1 | -0.601 |
| CCc1ccc(S(=O)(=O)N2CC3(COC(C)(C)OC3)C2)s1 | 14.1 |

| SMILES | cytotoxicity at 70.5 h [%] |
| --- | --- |
| COc1ccc(C)cc1NC(=O)Nc1cnc(N2CCOCC2)nc1 | -0.928 |
| O=S(=O)(Nc1cnc(N2CCCC2)nc1)c1ccc(C(F)(F)F)cc1 | 31.4 |
| O=S(=O)(Nc1cnc(N2CCCC2)nc1)c1ccc(OC(F)(F)F)cc1 | -4.76 |
| O=S(=O)(Nc1cnc(N2CCOCC2)nc1)c1ccc(Cl)cc1 | 3.18 |
| CC(C)CN1CCC2(Cc3ccccc3NC2=O)C1 (configuration not stated) | -4.52 |
| CCN1CCOCC2(CCCN(c3nncs3)C2)C1 (configuration not stated) | -2.2 |
| Cc1nnc([C@@H]2CCO[C@@H]3CCN(C(=O)Cc4ccccn4)C[C@@H]32)o1 | -0.42 |
| CN1CCN([C@@H]2CN(C(=O)c3ccsc3)[C@@H]3CCCO[C@H]23)CC1 | -2.84 |
| CN1CCN([C@@H]2CN(C(=O)c3ccnnc3)[C@@H]3CCCO[C@H]23)CC1 | -3.3 |
| CCCN(CC)C(=O)c1nc2c(n1C)CCN(Cc1ccccc1)C2 | -4.66 |
| COCCC1COC2(CCN(C(C)=O)CC2)C1 (configuration not stated) | -5.06 |
| CCN(CC)[C@@H]1CN(Cc2cnn(C)c2)[C@@H]2COC[C@H]12 | -5.97 |
| CN1CC[C@]2(CN(Cc3cccs3)C[C@H]2c2ccccc2)C1=O | -4.05 |
| O=C(C1CC=CC1)N1CC[C@H]2[C@@H]1CCC(=O)N2c1ccccc1 | -3.86 |
| Cc1nnc([C@@H]2CC[C@@H]3[C@@H](CCN3CC3CCOCC3)O2)o1 | -1.38 |
| CCOc1ccc(Cl)c(C(=O)NCCC(=O)Nc2ccncc2)n1 | 0.642 |
| Cc1ccc(Cl)cc1N1CCC(CNC(=O)Cn2cccn2)C1 (configuration not stated) | 5.6 |
| Cc1cc(C(=O)N2CCCN(Cc3nccn3C(C)C)CC2)no1 | -5.9 |
| CC(C)c1nc(C2CCCN2CCS(=O)(=O)c2ccccc2)no1 (configuration not stated) | 2.5 |
| CCc1nc(C2CCCN2Cc2ccn(C)c(=O)c2)no1 (configuration not stated) | -2.34 |
| Cc1nc(C)n(C2CCCN(C(=O)c3cc(C4CC4)on3)C2)n1 (configuration not stated) | 1.36 |
| Cc1nc(C2CCCN2Cc2ccn(C)c(=O)c2)no1 (configuration not stated) | 0.568 |
| NC(=O)c1cc(C2CCCN(CCOc3cccc(F)c3)C2)n[nH]1 (configuration not stated) | 13 |

| SMILES | cytotoxicity at 70.5 h [%] |
| --- | --- |
| O=C1CCc2cc(NC(=O)C3CCCN3c3nccs3)ccc2N1 (configuration not stated) | -1.9 |
| CCOc1ccc(Cl)c(C(=O)NC)n1 | 0.647 |
| O=C(NCCn1ccnc1)N1CCCC1c1ccc2c(c1)OCCO2 (configuration not stated) | -4.48 |
| Cc1noc(C2CCN(C(=O)CCc3ccccn3)CC2)n1 | -4.44 |
| CC(C)n1ccnc1CN1CCCN(C(=O)c2cnn(C)c2)CC1 | -0.464 |
| CC(C)n1ccnc1CN1CCCN(C(=O)c2cnc[nH]2)CC1 | -1.35 |
| COc1ccc(C2CCCN2C(=O)NCCn2ccnc2)cc1OC (configuration not stated) | 0.318 |
| O=C(NCCn1ccnc1)N1CCCC1c1cccs1 (configuration not stated) | 2.2 |
| Cc1cc(C(=O)N2CCCC(n3cncn3)C2)no1 (configuration not stated) | -0.711 |
| Cn1cnc2c1CCN(Cc1csc(-c3ccco3)n1)C2 | 15.3 |
| COc1cccc(-n2nnc(C(=O)N3CCC(C(N)=O)CC3)c2C)c1 | -8.91 |
| CC(C)CN1CC(C(=O)NCc2ccnc(-n3cccn3)c2)CC1=O (configuration not stated) | 12.8 |
| COc1cccc(-n2nnc(C(=O)N3CCCCCC3)c2C)c1 | -12.9 |
| CCC1c2ccsc2CCN1C(=O)NCc1cccnc1N(C)C (configuration not stated) | 13 |
| CC(Nc1cccc(CN2CCOC2=O)c1)C(=O)Nc1ccccc1 (configuration not stated) | -22.1 |
| Cc1cccc(NC(=O)C(C)Nc2cccc(CN3CCOC3=O)c2)c1 (configuration not stated) | -7.24 |
| Cn1ccc(CN2CCC(CC(=O)NC3CCCC3)CC2)cc1=O | 15 |
| Cn1cc(NC(=O)N2CCC(Cc3ccccc3)CC2)ccc1=O | -2.61 |
| CN(C)c1ccc(C(=O)N2CCCN(Cc3cnn(C)c3)CC2)nn1 | -8.42 |
| c1cc(COc2ccc(CNC3CCc4ncnn4C3)cc2)ccn1 (configuration not stated) | -2.99 |
| Cc1cc(C)n(C2CCCN(C(=O)Cc3cn4ccsc4n3)C2)n1 (configuration not stated) | -13.1 |
| Cc1cnn(CC2CCCN2C(=O)c2ccc(-n3cccn3)nc2)c1 (configuration not stated) | -1.39 |
| Cc1cnn(CC2CCCCN2C(=O)c2ccc(NC3CC3)nc2)c1 (configuration not stated) | -4.98 |

| SMILES | cytotoxicity at 70.5 h [%] |
| --- | --- |
| c1cnnc(N2CCCC2CNCc2nc(-c3ccco3)no2)c1 (configuration not stated) | -14.5 |
| CCN(CC)c1ccc(C(=O)N2CCCC(n3cncn3)C2)cn1 (configuration not stated) | -4.12 |
| CC(C)(C)c1nc(CC(=O)N2CCCC(n3cncn3)C2)cs1 (configuration not stated) | -1.77 |
| CNC(=O)c1ccc(C(=O)N2CCCCC2Cn2cc(C)cn2)cn1 (configuration not stated) | -5.34 |
| Cc1cnn(CC2CCCN2C(=O)c2ccc(OCC3CC3)nc2)c1 (configuration not stated) | -6.47 |
| c1ccc(COc2ccccc2CNC2CCc3ncnn3C2)cc1 (configuration not stated) | -6.49 |
| c1csc(CN2CC(c3nc(-c4cnccn4)no3)C2)c1 | -4.66 |
| c1cnc(-c2noc(C3CN(Cc4ccsc4)C3)n2)cn1 | -8.37 |
| CCOC(=O)CN1CC(c2nc(-c3ccsc3)no2)C1 | 0.957 |
| O=C(CN1CC(c2nc(-c3ccco3)no2)C1)NCCc1ccccc1 | -11.2 |
| Clc1ccc(COCC2CCN(Cc3ccccn3)CC2)cc1 | -0.416 |
| CCS(=O)(=O)N1CCCC2(COCCN(c3nnc(C)o3)C2)C1 (configuration not stated) | -1.84 |
| Cc1ncsc1CN1CCn2c(COCC3CC3)cnc2C1C (configuration not stated) | -2.63 |
| CC(C)NC(=O)C[C@H]1[C@H]2CN(C(=O)Cc3ccccn3)C[C@@H]12 | 1.47 |
| CC(C)CN1CCCC2(CCN(c3ccc(C#N)cn3)C2)C1 (configuration not stated) | 2.01 |
| CN1CC[C@]2(CN(Cc3nccs3)C[C@H]2c2ccccc2)C1=O | 4.14 |
| CNC(=O)[C@@H]1CC[C@@H]2[C@@H](CCN2Cc2cn(C)c3ccccc23)O1 | -3.34 |
| Fc1cnc(N2CC[C@@H]3O[C@H](COCc4ccccn4)CC[C@@H]32)nc1 | -3.08 |
| Cc1ccc(N2CC[C@@H]3O[C@@H](COCc4cccnc4)CC[C@@H]32)nn1 | -3.24 |
| CC(C)N1[C@@H](C(=O)NCCN(C)C)C[C@H]2CN(c3ncccn3)C[C@H]21 | -2.96 |

From ChEMBL document CHEMBL3507680, “University of Dundee, Gates Library screen for HepG2 cell viability”
